Measured values published in patent publication US20230046904A1, “COMBINATION OF SMALL MOLECULE INHIBITOR OF THE PD-1/PD-L1 INTERACTION AND ANTI-PD-1 ANTIBODY FOR TREATING CANCER” (GUANGZHOU MAXINOVEL PHARMACEUTICALS CO., LTD., priority 2019, published 2023).

Tests used:
4T1 tumor cells [1] = assay: Anti-tumor efficacy of Compound 1 and Keytruda in the 4T1 humanized mouse model; format: in vivo
Procedure: (§1) 4T1 tumor cells (ATCC, CRL-2539™) are maintained in vitro as a monolayer culture in RPMI 1640 medium supplemented with 10% heat inactivated fetal bovine serum at 37° C. in an atmosphere of 5% CO2 in air. The tumor cells are routinely subcultured three times weekly by trypsin-EDTA treatment. Each mouse is inoculated subcutaneously at the fourth mammary pad with 1×10^5 in 0.05 mL base medium for tumor development.
(§2) Compound 1 plus Keytruda (pembrolizumab): 40 BALB/c mice are inoculated subcutaneously at the fourth mammary pad with 4T1 cells for tumor development. On the six days of post inoculation, the mice were assigned into 4 groups using stratified randomization with 10 mice in each group based upon their tumor volume. The treatments were started from the day of randomization, and the groups receive the following treatments:
Group 1: Vehicle control; Group 2: Keytruda, 10 mg/kg, i.p., BIW; Group 3: Compound 1, 60 mg/kg, p.o., BID, and Group 4: Compound 1, 60 mg/kg, p.o., BID+Keytruda, 10 mg/kg, i.p., BIW respectively.
(§3) The tumor sizes are measured three times per week during the treatment.
The tumor growth inhibition effect of the combination of Compound 1 and Keytruda is examined. The tumor inhibition rate is calculated as:
TGI (%)=(1−(the volume of the tumor on the day of administration−the volume of the tumor on the first day of administration (treatment group))/(the volume of the tumor on the day of administration−the volume of the tumor on the first day (vehicle group))×100%.

[2] = tested on: B16F10 tumor cells (melanoma); assay: Anti-tumor efficacy in the B16F10 model in C57BL/6 mice; format: in vivo; settings: PO, BID
Procedure: Materials required for the experiment: Antibody: mouse PD-1 antibody, Product specifications: 7.09 mg/mL (50 mg/mL), Lot No.: 695318A1 purchased from BioXcell, storage at 4° C. Experimental animals 60 C57BL/6 mice, female, 6-8 weeks old, 17-21 g, purchased from Shanghai Lingchang Biotechnology Co. Ltd. Formulation materials: castor oil (Cremophor RH40), CAS No.: 61788-85-0, Lot No.: 29761847G0, purchased from Shanghai Xietai Chemical Co. Ltd.; β-cyclodextrin (SBE-β-CD), CAS No.: 128446-35-5, Lot No.: 20180110, purchased from Shanghai Shaoyuan Chemical Co. Ltd.; DMEM culture medium, Art. No.: 11995-065, Lot No.: 2025378, purchased from Gibco Co. Ltd.; PBS, Art. […]
Cell preparation and implantation: The B16-F10 tumor cells (ATCC CRL-6475™) are maintained in vitro as a monolayer culture in DMEM medium supplemented with 10% heat inactivated fetal bovine serum at 37° C. in an atmosphere of 5% CO2 in air. […] The cells growing to a confluency around 70%-80% are harvested and counted for tumor inoculation. […]
Procedure: The mice in the vehicle group are weighed and recorded in the electronic balance according to their numbers. […]
The mice in the antibody (10 mg/kg) group are weighed and recorded in the electronic balance according to their numbers. […]
The mice in the compound (30 mg/kg) group are weighed and recorded in the electronic balance according to their numbers. […]

4T1 tumor cells [3] = assay: Anti-tumor efficacy of Compound 1 and Opdivo in the 4T1 humanized mouse model; format: in vivo; settings: for TGI at day 13: p<0.0001
Procedure: as §1
as §2, with “Opdivo (nivolumab):” for “Keytruda (pembrolizumab):”, “are” for “were”
Group 1: Vehicle control; Group 2: Opdivio, 10 mg/kg, i.p., BIW; Group 3: Compound 1, 60 mg/kg, p.o., BID and Group 4: Compound 1, 60 mg/kg, p.o., BID+Opdivio, 10 mg/kg, i.p., BIW respectively.
as §3
The tumor growth inhibition effect of the combination of Compound 1 and Opdivo is examined. The tumor inhibition rate is calculated as:
TGI (%)=(1−(the volume of the tumor on the day of administration−the volume of the tumor on the first day of administration (treatment group))/(the volume of the tumor on the day of administration−the volume of the tumor on the first day (vehicle group)))×100%.

[4] = tested on: PD-L1 suppressed human T cells; assay: Activation of T-Cell Suppressed by PD-L1 (co-culture with PD-L1 transfected Hep3B cells, IFN-γ readout); format: cell-based; settings: dose-dependent; Keytruda as positive control
Excerpt: To measure the cellular activity of the compound, a protocol of Activation of T-Cell Suppressed by PD-L1 is used. In this protocol, human Hep3B cells are stably transfected with human PD-L1. The human T cells containing PD-1 are inactivated by co-culturing with these PD-L1 transfected cells. Then anti-PD-1 antibody Keytruda® (pembrolizumab) is selected as the reference to profile the compound for its activation of PD-L1 suppressed human T-cells. […] Keytruda is used as a positive control.

Q: What does the source list for `Cc1c(/C=C/c2cc(CN[C@@](C)(CO)C(=O)O)ccc2C(F)(F)F)cccc1-c1ccccc1` [Compound 1]?
A: TGI at day 10 (4T1 tumor cells [1]; 60 mg/kg, PO, BID, p<0.0001): 22.36%; growth of subcutaneous transplanted melanoma cell line in mice ([2]; C57BL/6 mice): significantly inhibits the growth; tolerability in C57BL/6 mice ([2]; up to 120 mg/kg): well tolerated in C57BL/6 mice without obvious adverse reactions; TGI at day 13 (4T1 tumor cells [3]; 60 mg/kg, PO, BID): 21.70%; activation of PD-L1 suppressed human T cells, indicated by increase of cytokine IFN-γ [4]: effectively restores the activation of the PD-L1 suppressed human T cells

Q: For nivolumab [Opdivo], which “TGI at day 13” value (4T1 tumor cells [3]; 10 mg/kg, IP, BIW) is on record?
A: 21.88%

Q: And the “time after dosing within which mice are found dead” value (4T1 tumor cells [3]; after the 5th dose of Opdivo at day 14, 10 mg/kg i.p. BIW, mice)?
A: ≤ 1 h

Q: With pembrolizumab [Keytruda] as the compound, how does the “TGI at day 10” value (4T1 tumor cells [1]; 10 mg/kg, IP, BIW, p>0.5) read?
A: 9.12%

Q: What about the “time after dosing within which mice are found dead” value (4T1 tumor cells [1]; after the 4th dose of Keytruda at day 10, 10 mg/kg i.p. BIW, mice) of the same compound?
A: ≤ 1 h
